Patent US11731943B2, “Therapeutic compounds, compositions and methods of use thereof” (priority 2016, dated 2023)
Like-named read-outs stand apart in the source and are kept apart here.

Columns and labels:
[1] = molecular target: isolated recombinant JAK2 kinase domain (Homo sapiens (Human), UniProt O60674); assay: JAK2 enzyme assay (Caliper LabChip, Ki); type: biochemical
In short: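 Caliper LabChip readout of phosphorylated product as a fraction of total substrate, a fluorescently N-terminally labelled JAK3-derived peptide. Isolated human JAK kinase domains were incubated 30 min at 22 °C before EDTA quench (50 mM final).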

[2] = molecular target: isolated recombinant JAK1 kinase domain (Homo sapiens (Human), UniProt P23458); assay: JAK1 enzyme assay (Caliper LabChip, Ki); type: biochemical; conditions: read-out: JAK1 Ki
Chain of isolated recombinant JAK1 kinase domain (P23458 875-1153): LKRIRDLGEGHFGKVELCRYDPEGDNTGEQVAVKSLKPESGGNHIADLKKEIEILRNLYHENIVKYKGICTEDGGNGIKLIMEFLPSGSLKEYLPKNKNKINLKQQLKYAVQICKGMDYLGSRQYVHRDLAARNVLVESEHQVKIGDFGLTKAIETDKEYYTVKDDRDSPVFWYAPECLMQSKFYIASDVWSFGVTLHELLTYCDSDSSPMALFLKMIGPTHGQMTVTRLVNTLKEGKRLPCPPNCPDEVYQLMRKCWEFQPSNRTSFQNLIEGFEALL
In short: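 Ki derived via Morrison tight-binding model, ATP-competitive correction applied. Read-out: product/total ratio of a 5-carboxyfluorescein-tagged JAK3 peptide separated on Caliper LabChip after phosphorylation by isolated human JAK1 kinase domain (22 °C, 30 min; EDTA quench, 50 mM final).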

[3] = system: JAK1-dependent STAT6 phosphorylation downstream of IL-13 stimulation in BEAS-2B human bronchial epithelial cells; assay: JAK1 pathway assay in BEAS-2B cells (IL-13-pSTAT6, MSD); type: cell-based; conditions: BEAS-2B cells, IL-13 stimulation, read-out: IL-13 p-STAT6 BEAS-2B IC50

Chain of isolated recombinant JAK2 kinase domain (O60674 849-1124): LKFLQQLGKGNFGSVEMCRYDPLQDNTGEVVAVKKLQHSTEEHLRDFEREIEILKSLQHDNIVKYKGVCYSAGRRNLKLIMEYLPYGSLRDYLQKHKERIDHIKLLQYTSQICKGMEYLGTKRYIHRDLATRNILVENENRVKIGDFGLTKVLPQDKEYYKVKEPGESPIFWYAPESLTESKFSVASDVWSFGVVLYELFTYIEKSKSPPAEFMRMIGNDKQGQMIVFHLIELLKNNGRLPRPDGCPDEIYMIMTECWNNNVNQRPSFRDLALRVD

| Compound | Ki [1] [pM] | Ki [2] [pM] | IC50 ([3]; Homo sapiens, BEAS-2B) [pM] | IC50 [3] [pM] |
| --- | --- | --- | --- | --- |
| N#CCC1(n2cc(C(N)=O)c(NC(=O)C3CC3)n2)CCN(Cc2ccc(-c3ccco3)cc2)CC1F (stereo not drawn) [Example 215, 1-[4-(cyanomethyl)-3-fluoro-1-[[4-(2-furyl)phenyl]methyl]-4-piperidyl]-3-(cyclopropanecarbonylamino) pyrazole-4-carboxamide] | 250 | 240 | 12000 | – |
| CCn1ccc(-c2ccc(CN3CCC(CC#N)(n4cc(C(N)=O)c(NC(=O)OC)n4)C(F)C3)cc2)n1 (stereo not drawn) [Example 216, methyl N-[4-carbamoyl-1-[4-(cyanomethyl)-1-[[4-(1-ethylpyrazol-3-yl)phenyl]methyl]-3-fluoro-4-piperidyl]pyrazol-3-yl]carbamate] | 700 | 740 | 40000 | – |
| CCn1ccc(-c2ccc(CN3CCC(CC#N)(n4cc(C(N)=O)c(NC(=O)C5CC5)n4)C(F)C3)cc2)n1 (stereo not drawn) [Example 217, 1-[4-(cyanomethyl)-1-[[4-(1-ethylpyrazol-3-yl)phenyl]methyl]-3-fluoro-4-piperidyl]-3-(cyclopropanecarbonylamino) pyrazole-4-carboxamide] | 490 | 660 | 56000 | – |
| N#CCC1(n2cc(C(N)=O)c(NC(=O)C3CC3C#N)n2)CCN(Cc2ccc(-c3ccccc3)cc2F)CC1F (stereo not drawn) [Example 218, 3-[(2-cyanocyclopropanecarbonyl)amino]-1-[4-(cyanomethyl)-3-fluoro-1-[(2-fluoro-4-phenyl-phenyl)methyl]-4-piperidyl]pyrazole-4-carboxamide] | 590 | 350 | – | 28000 |
| N#CCC1(n2cc(C(N)=O)c(NC(=O)C3CC3C#N)n2)CCN(Cc2ccc(-c3ccccc3)cc2F)CC1F (stereo not drawn) [Example 219, 3-[(2-cyanocyclopropanecarbonyl)amino]-1-[4-(cyanomethyl)-3-fluoro-1-[(2-fluoro-4-phenyl-phenyl)methyl]-4-piperidyl]pyrazole-4-carboxamide] | 3600 | 1700 | – | 68000 |
| COC(=O)Nc1nn(C2(CC#N)CCN(Cc3ccc(-c4ccco4)cc3)CC2F)cc1C(N)=O (stereo not drawn) [Example 220, methyl N-[4-carbamoyl-1-[4-(cyanomethyl)-3-fluoro-1-[[4-(2-furyl)phenyl]methyl]-4-piperidyl]pyrazol-3-yl]carbamate] | 440 | 270 | 15000 | – |
| CCc1ccc(-c2ccc(CN3CCC(CC#N)(n4cc(C(N)=O)c(NC(=O)C5CC5C#N)n4)C(F)C3)cc2O)cc1 (stereo not drawn) [Example 221, 3-[(2-cyanocyclopropanecarbonyl)amino]-1-[4-(cyanomethyl)-1-[[4-(4-ethylphenyl)-3-hydroxy-phenyl]methyl]-3-fluoro-4-piperidyl]pyrazole-4-carboxamide] | 1700 | 300 | 90000 | – |
| CCc1ccc(-c2ccc(CN3CCC(CC#N)(n4cc(C(N)=O)c(NC(=O)C5CC5C#N)n4)C(F)C3)cc2O)cc1 (stereo not drawn) [Example 222, 3-[(2-cyanocyclopropanecarbonyl)amino]-1-[4-(cyanomethyl)-1-[[4-(4-ethylphenyl)-3-hydroxy-phenyl]methyl]-3-fluoro-4-piperidyl]pyrazole-4-carboxamide] | 430 | 180 | – | 52000 |
| Cc1ccc(-c2ccc(CN3CCC(CC#N)(n4cc(C(N)=O)c(NC(=O)C5CC5)n4)C(F)C3)cc2)o1 (stereo not drawn) [Example 223, 1-[4-(cyanomethyl)-3-fluoro-1-[[4-(5-methyl-2-furyl)phenyl]methyl]-4-piperidyl]-3-(cyclopropanecarbonylamino) pyrazole-4-carboxamide] | 340 | 380 | 12000 | – |
| COC(=O)Nc1nn(C2(CC#N)CCN(Cc3ccc(-c4ccco4)c(O)c3)CC2F)cc1C(N)=O (stereo not drawn) [Example 224, methyl N-[4-carbamoyl-1-[4-(cyanomethyl)-3-fluoro-1-[[4-(2-furyl)-3-hydroxy-phenyl]methyl]-4-piperidyl]pyrazol-3-yl]carbamate] | 150 | 160 | 19000 | – |
| CCOC(=O)Nc1nn(C2(CC#N)CCN(Cc3ccc(-n4nccn4)cc3)CC2F)cc1C(N)=O (stereo not drawn) [Example 225, ethyl N-[4-carbamoyl-1-[4-(cyanomethyl)-3-fluoro-1-[[4-(triazol-2-yl)phenyl]methyl]-4-piperidyl]pyrazol-3-yl]carbamate] | 1300 | 620 | 44000 | – |
| COC(=O)Nc1nn(C2(CC#N)CCN(Cc3ccc(-c4ccco4)nc3F)CC2F)cc1C(N)=O (stereo not drawn) [Example 226, methyl N-[4-carbamoyl-1-[4-(cyanomethyl)-3-fluoro-1-[[2-fluoro-6-(2-furyl)-3-pyridyl]methyl]-4-piperidyl]pyrazol-3-yl]carbamate] | 560 | 370 | 49000 | – |
| N#CCC1(n2cc(C(N)=O)c(NC(=O)C3CC3C#N)n2)CCN(Cc2ccc(-c3ccccc3)nc2F)CC1F (stereo not drawn) [Example 227, 3-[(2-cyanocyclopropanecarbonyl)amino]-1-[4-(cyanomethyl)-3-fluoro-1-[(2-fluoro-6-phenyl-3-pyridyl)methyl]-4-piperidyl]pyrazole-4-carboxamide] | 630 | 310 | 54000 | – |
| N#CCC1(n2cc(C(N)=O)c(NC(=O)C3CC3C#N)n2)CCN(CC2CCC(c3ccccc3)CC2)CC1F (stereo not drawn) [Example 228, 3-[(2-cyanocyclopropanecarbonyl)amino]-1-[4-(cyanomethyl)-3-fluoro-1-[(4-phenylcyclohexyl)methyl]-4-piperidyl]pyrazole-4-carboxamide] | 7700 | 1500 | – | 77000 |
| N#CCC1(n2cc(C(N)=O)c(NC(=O)C3CC3)n2)CCN(Cc2ccc(C3=CCCCC3)cc2)CC1F (stereo not drawn) [Example 229, 1-[4-(cyanomethyl)-1-[[4-(cyclohexen-1-yl)phenyl]methyl]-3-fluoro-4-piperidyl]-3-(cyclopropanecarbonylamino) pyrazole-4-carboxamide] | 770 | 480 | 25000 | – |
| N#CCC1(n2cc(C(N)=O)c(NC(=O)C3CC3C#N)n2)CCN(CC2CCC(c3ccccc3)CC2)CC1F (stereo not drawn) [Example 230, 3-[(2-cyanocyclopropanecarbonyl)amino]-1-[4-(cyanomethyl)-3-fluoro-1-[(4-phenylcyclohexyl)methyl]-4-piperidyl]pyrazole-4-carboxamide] | 1800 | 510 | – | 60000 |
| N#CCC1(n2cc(C(N)=O)c(NC(=O)C3CC3C#N)n2)CCN(CC2CCC(c3ccccc3)CC2)CC1F (stereo not drawn) [Example 231, 3-[(2-cyanocyclopropanecarbonyl)amino]-1-[4-(cyanomethyl)-3-fluoro-1-[(4-phenylcyclohexyl)methyl]-4-piperidyl]pyrazole-4-carboxamide] | 8300 | 360 | – | 19000 |
| CCc1ccc(-c2ccc(CN3CCC(CC#N)(n4cc(C(N)=O)c(NC(=O)OC)n4)C(F)C3)cc2)o1 (stereo not drawn) [Example 232, methyl N-[4-carbamoyl-1-[4-(cyanomethyl)-1-[[4-(5-ethyl-2-furyl)phenyl]methyl]-3-fluoro-4-piperidyl]pyrazol-3-yl]carbamate] | 890 | 320 | 20000 | – |
| N#CCC1(n2cc(C(N)=O)c(NC(=O)C3CC3)n2)CCN(CC2CCC(c3ccccc3)CC2)CC1F (stereo not drawn) [Example 233, 1-[4-(cyanomethyl)-3-fluoro-1-[(4-phenylcyclohexyl)methyl]-4-piperidyl]-3-(cyclopropanecarbonylamino) pyrazole-4-carboxamide] | 450 | 300 | 39000 | – |
| N#CCC1(n2cc(C(N)=O)c(NC(=O)C3CC3)n2)CCN(CC2CCC(c3ccccc3)CC2)CC1F (stereo not drawn) [Example 234, 1-[4-(cyanomethyl)-3-fluoro-1-[(4-phenylcyclohexyl)methyl]-4-piperidyl]-3-(cyclopropanecarbonylamino) pyrazole-4-carboxamide] | 1000 | 270 | – | 31000 |
| COC(=O)Nc1nn(C2(CC#N)CCN(CC3CCC(c4ccccc4)CC3)CC2F)cc1C(N)=O (stereo not drawn) [Example 235, methyl N-[4-carbamoyl-1-[4-(cyanomethyl)-3-fluoro-1-[(4-phenylcyclohexyl)methyl]-4-piperidyl]pyrazol-3-yl]carbamate] | 670 | 320 | 26000 | – |
| COC(=O)Nc1nn(C2(CC#N)CCN(CC3CCC(c4ccccc4)CC3)CC2F)cc1C(N)=O (stereo not drawn) [Example 236, methyl N-[4-carbamoyl-1-[4-(cyanomethyl)-3-fluoro-1-[(4-phenylcyclohexyl)methyl]-4-piperidyl]pyrazol-3-yl]carbamate] | 1400 | 210 | – | 19000 |
| COC(=O)Nc1nn(C2(CC#N)CCN(Cc3cc(O)c(-c4ccoc4)cc3F)CC2F)cc1C(N)=O (stereo not drawn) [Example 237, methyl N-[4-carbamoyl-1-[4-(cyanomethyl)-3-fluoro-1-[[2-fluoro-4-(3-furyl)-5-hydroxy-phenyl]methyl]-4-piperidyl]pyrazol-3-yl]carbamate] | 300 | 220 | 27000 | – |
| COC(=O)Nc1nn(C2(CC#N)CCN(Cc3cc(O)c(-c4ccco4)cc3F)CC2F)cc1C(N)=O (stereo not drawn) [Example 238, methyl N-[4-carbamoyl-1-[4-(cyanomethyl)-3-fluoro-1-[[2-fluoro-4-(2-furyl)-5-hydroxy-phenyl]methyl]-4-piperidyl]pyrazol-3-yl]carbamate] | 350 | 290 | 18000 | – |
